Drawing on ChEMBL document CHEMBL1201862, “PubChem BioAssay data set” (2004), this text covers IC50 and EC50 for four molecules.

For experiment [1], the target named is T1, Tyrosine-protein phosphatase non-receptor type 22 (Homo sapiens, UniProt Q9Y2R2).
T1 sequence (Q9Y2R2 whole entry): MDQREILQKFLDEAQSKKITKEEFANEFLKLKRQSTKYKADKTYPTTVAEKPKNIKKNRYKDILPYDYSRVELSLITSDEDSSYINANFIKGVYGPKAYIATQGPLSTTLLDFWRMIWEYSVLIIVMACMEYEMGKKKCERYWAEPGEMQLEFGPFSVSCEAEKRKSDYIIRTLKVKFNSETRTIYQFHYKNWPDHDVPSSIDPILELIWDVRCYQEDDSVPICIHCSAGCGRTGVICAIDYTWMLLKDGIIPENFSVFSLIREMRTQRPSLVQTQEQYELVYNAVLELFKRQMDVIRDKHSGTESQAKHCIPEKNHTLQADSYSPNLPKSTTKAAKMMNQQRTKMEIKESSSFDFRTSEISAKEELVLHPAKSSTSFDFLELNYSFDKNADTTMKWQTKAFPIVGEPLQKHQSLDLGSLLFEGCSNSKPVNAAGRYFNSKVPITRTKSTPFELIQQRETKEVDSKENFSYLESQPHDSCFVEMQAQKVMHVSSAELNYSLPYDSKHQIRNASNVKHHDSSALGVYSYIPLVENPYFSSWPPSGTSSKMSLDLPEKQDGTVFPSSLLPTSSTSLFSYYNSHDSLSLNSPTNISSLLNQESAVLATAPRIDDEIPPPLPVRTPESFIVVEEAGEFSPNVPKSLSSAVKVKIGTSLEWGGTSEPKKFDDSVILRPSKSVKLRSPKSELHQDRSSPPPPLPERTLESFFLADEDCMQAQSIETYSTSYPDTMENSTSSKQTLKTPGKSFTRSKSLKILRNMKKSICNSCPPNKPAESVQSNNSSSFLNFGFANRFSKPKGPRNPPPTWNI
Type of experiment: functional.

In experiment [2] the target is T2, Tyrosine-protein phosphatase non-receptor type 7 (Homo sapiens, UniProt P35236).
T2 sequence (P35236 whole entry): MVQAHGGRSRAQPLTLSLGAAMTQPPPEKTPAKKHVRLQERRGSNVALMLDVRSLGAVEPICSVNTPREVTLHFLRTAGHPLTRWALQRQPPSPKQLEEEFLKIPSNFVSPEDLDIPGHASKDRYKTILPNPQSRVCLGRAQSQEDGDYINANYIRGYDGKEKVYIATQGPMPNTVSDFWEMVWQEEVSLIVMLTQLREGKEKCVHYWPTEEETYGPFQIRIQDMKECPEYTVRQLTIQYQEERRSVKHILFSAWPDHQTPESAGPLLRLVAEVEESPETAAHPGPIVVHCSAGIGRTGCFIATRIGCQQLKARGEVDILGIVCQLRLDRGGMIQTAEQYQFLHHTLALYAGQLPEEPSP
Type of experiment: functional.

Experiment [3] deals with T1, Tyrosine-protein phosphatase non-receptor type 22. Type of experiment: functional. The source holds these as a separate data set.
In experiment [4] the target is T3, DNA dC->dU-editing enzyme APOBEC-3A (Homo sapiens, UniProt P31941). The experiment can be described thus: SAR analysis of small molecule inhibitors of APOBEC3A DNA Deaminase via a fluorescence-based single-stranded DNA deaminase assay. Format: functional. As to conditions: read-out: IC50_Mean.
The target in experiment [5] is Intestinal-type alkaline phosphatase (Homo sapiens, UniProt P09923). The experiment can be described thus: activation of human intestinal alkaline phosphatase – biochemical, dose response (AID 488873). Type of experiment: functional.
Experiment [6] addresses T4, DNA dC->dU-editing enzyme APOBEC-3G (Homo sapiens, UniProt Q9HC16). The experiment can be described thus: inhibition of APOBEC3G ssDNA deamination – biochemical, fluorescence, single-stranded DNA substrate, SAR follow-up (AID 602136). Type of experiment: functional. As to conditions: read-out: IC50_Mean.
Experiment [7] has as its target Large T antigen (Simian virus 40, UniProt P03070). Format: functional, Betapolyomavirus macacae.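 Note: Confirmatory-stage PubChem screen for compounds that inhibit SV40 T antigen.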
Experiment [8] concerns the target T5, Alkaline phosphatase, tissue-nonspecific isozyme (Homo sapiens, UniProt P05186).
T5 sequence (P05186 whole entry): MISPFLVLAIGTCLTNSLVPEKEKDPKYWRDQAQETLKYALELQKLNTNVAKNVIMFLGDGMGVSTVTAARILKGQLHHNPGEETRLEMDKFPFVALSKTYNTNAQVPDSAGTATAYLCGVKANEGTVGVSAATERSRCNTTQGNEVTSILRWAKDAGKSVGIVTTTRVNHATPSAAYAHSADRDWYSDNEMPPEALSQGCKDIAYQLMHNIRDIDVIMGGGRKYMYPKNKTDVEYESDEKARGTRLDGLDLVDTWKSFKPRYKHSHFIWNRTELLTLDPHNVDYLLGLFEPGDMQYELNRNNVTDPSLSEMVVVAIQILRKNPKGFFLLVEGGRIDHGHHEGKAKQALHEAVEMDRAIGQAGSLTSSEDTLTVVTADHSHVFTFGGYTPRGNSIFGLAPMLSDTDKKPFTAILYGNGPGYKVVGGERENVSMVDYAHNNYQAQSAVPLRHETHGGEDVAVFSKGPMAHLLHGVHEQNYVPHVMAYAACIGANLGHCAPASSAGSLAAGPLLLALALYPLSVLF
Briefly: activation of tissue-nonspecific alkaline phosphatase – biochemical, TNAP isozyme, mouse IAP uHTS hits, selectivity assay for mouse IAP activator project, dose response (AID 488880). Type of experiment: functional.

Experiment [9] addresses Intestinal-type alkaline phosphatase (Mus musculus, UniProt P24822). The experiment can be described thus: mouse intestinal alkaline phosphatase activators, dose response, biochemical, luminescence, uHTS hits (AID 488783). Type of experiment: functional.
Experiment [10] deals with T4, DNA dC->dU-editing enzyme APOBEC-3G. The experiment can be described thus: SAR analysis of small molecule inhibitors of APOBEC3G DNA Deaminase via a fluorescence-based single-stranded DNA deaminase assay - Set 2. Format: functional. To be noted: read-out: IC50_Mean.
The target of experiment [11] is T3, DNA dC->dU-editing enzyme APOBEC-3A. The experiment can be described thus: SAR analysis of small molecule inhibitors of APOBEC3A DNA Deaminase via a fluorescence-based single-stranded DNA deaminase assay - Set 2. To be noted: read-out: IC50_Mean. Format: functional.
For experiment [12], the target named is Induced myeloid leukemia cell differentiation protein Mcl-1 (Homo sapiens, UniProt Q07820). Type of experiment: functional.
Experiment [13] deals with Nucleotide-binding oligomerization domain-containing protein 1 (Homo sapiens, UniProt Q9Y239). The experiment can be described thus: SAR analysis of compounds that inhibit NOD1 - Set 3. [Related pubchem assays (depositor defined):AID1566, AID1575, AID1578, AID1849, AID1852, AID2333, AID2335, AID2466]. Format: functional.
Experiment [14] deals with HEK293. Briefly: SAR analysis of compounds that are cytotoxic to HEK293 - Set 3. [Related pubchem assays (depositor defined):AID1575, AID1578, AID1848, AID1849, AID2001, AID2333, AID2334, AID2335, AID2337, AID2469]. Type of experiment: functional, cell-based. To be noted: Homo sapiens.
Experiment [15] addresses Tumor necrosis factor (Homo sapiens, UniProt P01375). Briefly: analog potency on TNFa NF-kB signaling – cell-based, set 3, SAR follow-up (AID 2801). Format: functional.
Experiment [16] has as its target Nucleotide-binding oligomerization domain-containing protein 2 (Homo sapiens, UniProt Q9HC29). Briefly: inhibition of MDP-driven NOD2 NF-kB reporter – cell-based, set 3, SAR follow-up (AID 2799). Type of experiment: functional.
Experiment [17] concerns the target T6, Kappa-type opioid receptor (Homo sapiens, UniProt P41145). The experiment can be described thus: kappa opioid receptor activation by imaging – image-based, set 3, SAR follow-up (AID 488833). Type of experiment: functional.
Experiment [18] deals with Mu-type opioid receptor (Homo sapiens, UniProt P35372). Briefly: SAR Analysis of Agonists of the MOR Receptor using an Image-Based Assay - Set 3. [Related pubchem assays (depositor defined):AID1777, AID1785, AID1786, AID1966, AID2133, AID2136, AID2284, AID2285, AID2352]. Type of experiment: functional.
For experiment [19], the target named is Delta-type opioid receptor (Homo sapiens, UniProt P41143). Briefly: SAR Analysis of Agonists of the DOR Receptor using an Image-Based Assay - Set 3. [Related pubchem assays (depositor defined):AID1777, AID1786]. Format: functional.
The target in experiment [20] is T6, Kappa-type opioid receptor. Briefly: SAR analysis of small molecule agonists of the kappa opioid receptor via a luminescent beta-arrestin assay - Set 3. [Related pubchem assays (depositor defined):AID1777, AID1785, AID1786, AID1966, AID2133, AID2136, AID2284, AID2500]. Format: functional.

Active and inactive are the calls of the source.

T3 sequence (P31941 whole entry): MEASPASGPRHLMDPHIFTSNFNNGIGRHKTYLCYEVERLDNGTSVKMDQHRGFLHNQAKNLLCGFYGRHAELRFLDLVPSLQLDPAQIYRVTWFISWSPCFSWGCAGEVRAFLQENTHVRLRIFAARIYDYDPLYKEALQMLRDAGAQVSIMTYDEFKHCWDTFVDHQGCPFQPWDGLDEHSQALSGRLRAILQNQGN
T6 sequence (P41145 whole entry): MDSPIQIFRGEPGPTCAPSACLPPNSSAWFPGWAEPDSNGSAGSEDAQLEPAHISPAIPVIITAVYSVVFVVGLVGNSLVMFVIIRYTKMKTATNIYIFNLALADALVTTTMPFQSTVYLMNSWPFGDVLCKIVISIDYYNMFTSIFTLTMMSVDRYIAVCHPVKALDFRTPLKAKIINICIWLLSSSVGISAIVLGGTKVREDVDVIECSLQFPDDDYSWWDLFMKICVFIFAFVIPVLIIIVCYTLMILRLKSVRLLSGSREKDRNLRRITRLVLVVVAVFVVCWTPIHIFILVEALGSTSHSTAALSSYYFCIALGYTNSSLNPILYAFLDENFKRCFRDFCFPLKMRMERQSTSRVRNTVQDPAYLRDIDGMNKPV
T4 sequence (Q9HC16 whole entry): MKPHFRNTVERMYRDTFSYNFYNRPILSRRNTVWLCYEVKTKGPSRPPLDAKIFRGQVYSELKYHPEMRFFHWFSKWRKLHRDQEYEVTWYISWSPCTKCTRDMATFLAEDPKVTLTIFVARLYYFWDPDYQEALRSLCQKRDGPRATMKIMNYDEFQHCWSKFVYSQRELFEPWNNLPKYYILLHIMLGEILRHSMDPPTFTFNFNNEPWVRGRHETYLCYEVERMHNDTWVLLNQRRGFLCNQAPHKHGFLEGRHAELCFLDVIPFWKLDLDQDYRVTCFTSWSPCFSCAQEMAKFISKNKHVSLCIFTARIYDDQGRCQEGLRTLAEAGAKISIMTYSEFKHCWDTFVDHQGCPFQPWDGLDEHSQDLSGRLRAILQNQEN
Mu-type opioid receptor, sequence (P35372 whole entry): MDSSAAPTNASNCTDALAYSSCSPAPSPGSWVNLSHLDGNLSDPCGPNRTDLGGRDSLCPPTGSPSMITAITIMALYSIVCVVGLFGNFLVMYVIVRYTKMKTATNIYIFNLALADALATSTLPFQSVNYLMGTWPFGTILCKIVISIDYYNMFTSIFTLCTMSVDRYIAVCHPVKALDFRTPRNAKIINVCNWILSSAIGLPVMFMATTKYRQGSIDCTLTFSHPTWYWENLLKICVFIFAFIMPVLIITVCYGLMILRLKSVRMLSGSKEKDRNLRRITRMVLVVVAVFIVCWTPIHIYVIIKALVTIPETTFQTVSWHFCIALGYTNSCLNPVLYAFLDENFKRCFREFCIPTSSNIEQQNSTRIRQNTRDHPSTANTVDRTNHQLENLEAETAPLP
Nucleotide-binding oligomerization domain-containing protein 1, sequence (Q9Y239 whole entry, the tested form may be a part): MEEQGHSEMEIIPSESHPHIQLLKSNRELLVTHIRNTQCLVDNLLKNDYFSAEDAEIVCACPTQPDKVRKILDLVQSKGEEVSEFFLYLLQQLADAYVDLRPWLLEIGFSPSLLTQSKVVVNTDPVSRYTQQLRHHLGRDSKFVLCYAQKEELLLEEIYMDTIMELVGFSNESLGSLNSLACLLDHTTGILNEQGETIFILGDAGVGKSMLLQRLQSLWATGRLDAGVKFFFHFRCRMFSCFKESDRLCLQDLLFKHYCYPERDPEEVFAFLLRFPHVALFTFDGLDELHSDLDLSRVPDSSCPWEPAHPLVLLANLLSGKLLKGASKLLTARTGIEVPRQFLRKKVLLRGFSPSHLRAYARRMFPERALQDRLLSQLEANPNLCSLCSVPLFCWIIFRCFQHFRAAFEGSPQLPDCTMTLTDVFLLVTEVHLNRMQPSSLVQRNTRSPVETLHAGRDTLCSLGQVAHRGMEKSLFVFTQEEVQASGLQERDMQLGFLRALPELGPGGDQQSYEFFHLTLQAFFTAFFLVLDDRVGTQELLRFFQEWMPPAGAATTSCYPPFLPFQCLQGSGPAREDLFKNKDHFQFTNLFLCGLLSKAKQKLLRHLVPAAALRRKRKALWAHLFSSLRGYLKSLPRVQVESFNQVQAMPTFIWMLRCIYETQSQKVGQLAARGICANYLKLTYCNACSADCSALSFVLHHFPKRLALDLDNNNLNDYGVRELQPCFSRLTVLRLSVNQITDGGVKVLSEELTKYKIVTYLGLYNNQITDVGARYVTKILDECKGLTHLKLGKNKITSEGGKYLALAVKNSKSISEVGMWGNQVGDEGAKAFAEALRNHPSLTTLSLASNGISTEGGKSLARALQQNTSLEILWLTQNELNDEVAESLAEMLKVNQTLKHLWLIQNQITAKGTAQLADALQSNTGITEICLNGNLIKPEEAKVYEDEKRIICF
Tumor necrosis factor, sequence (P01375 whole entry, the tested form may be a part): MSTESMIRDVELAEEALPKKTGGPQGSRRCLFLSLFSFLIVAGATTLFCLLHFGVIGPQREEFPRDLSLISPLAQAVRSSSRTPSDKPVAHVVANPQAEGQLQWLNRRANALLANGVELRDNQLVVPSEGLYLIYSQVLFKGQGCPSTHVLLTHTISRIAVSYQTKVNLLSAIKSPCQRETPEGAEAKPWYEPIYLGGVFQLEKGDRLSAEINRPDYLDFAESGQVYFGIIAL
Nucleotide-binding oligomerization domain-containing protein 2, sequence (Q9HC29 whole entry, the tested form may be a part): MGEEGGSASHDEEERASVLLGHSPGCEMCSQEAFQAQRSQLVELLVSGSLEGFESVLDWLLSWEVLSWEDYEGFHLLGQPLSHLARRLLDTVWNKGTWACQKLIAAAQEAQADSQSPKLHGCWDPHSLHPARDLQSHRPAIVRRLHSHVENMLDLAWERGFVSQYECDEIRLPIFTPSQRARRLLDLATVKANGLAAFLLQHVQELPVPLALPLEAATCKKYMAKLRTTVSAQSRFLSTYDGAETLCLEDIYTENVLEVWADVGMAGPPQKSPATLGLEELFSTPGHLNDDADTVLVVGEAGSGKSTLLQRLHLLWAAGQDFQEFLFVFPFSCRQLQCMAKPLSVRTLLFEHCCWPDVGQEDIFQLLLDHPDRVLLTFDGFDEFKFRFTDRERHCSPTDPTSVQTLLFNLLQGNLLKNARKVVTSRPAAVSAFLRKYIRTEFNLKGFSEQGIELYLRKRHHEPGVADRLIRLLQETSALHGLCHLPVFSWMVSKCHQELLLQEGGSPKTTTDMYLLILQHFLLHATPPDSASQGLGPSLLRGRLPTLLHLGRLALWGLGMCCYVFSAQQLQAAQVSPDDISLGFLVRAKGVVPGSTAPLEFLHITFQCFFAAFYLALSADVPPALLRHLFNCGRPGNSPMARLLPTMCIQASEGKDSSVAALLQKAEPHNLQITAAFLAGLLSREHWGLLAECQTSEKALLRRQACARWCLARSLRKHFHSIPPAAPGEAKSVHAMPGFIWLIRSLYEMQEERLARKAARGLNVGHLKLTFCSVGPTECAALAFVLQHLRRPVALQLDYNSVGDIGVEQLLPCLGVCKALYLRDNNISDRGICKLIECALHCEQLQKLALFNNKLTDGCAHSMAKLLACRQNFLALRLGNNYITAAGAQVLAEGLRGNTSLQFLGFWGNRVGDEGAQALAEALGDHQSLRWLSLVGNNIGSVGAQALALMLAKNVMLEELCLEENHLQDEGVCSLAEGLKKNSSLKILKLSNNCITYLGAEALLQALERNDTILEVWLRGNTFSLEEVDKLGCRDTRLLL
Intestinal-type alkaline phosphatase (Homo sapiens, UniProt P09923), sequence (P09923 whole entry): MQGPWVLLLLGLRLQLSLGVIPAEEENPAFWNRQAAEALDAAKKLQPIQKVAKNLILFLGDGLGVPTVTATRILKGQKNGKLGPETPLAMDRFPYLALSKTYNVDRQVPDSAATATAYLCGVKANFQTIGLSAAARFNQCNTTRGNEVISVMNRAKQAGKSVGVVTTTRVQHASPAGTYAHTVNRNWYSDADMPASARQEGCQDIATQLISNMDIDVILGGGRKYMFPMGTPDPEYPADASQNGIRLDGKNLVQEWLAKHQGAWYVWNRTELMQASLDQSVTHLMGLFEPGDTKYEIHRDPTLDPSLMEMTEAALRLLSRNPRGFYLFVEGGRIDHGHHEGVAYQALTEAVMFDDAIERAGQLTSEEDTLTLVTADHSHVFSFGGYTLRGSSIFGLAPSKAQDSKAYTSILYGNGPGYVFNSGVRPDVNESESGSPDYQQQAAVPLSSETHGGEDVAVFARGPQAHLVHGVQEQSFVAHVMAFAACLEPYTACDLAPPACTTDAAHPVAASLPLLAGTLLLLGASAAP
Intestinal-type alkaline phosphatase (Mus musculus, UniProt P24822), sequence (P24822 whole entry): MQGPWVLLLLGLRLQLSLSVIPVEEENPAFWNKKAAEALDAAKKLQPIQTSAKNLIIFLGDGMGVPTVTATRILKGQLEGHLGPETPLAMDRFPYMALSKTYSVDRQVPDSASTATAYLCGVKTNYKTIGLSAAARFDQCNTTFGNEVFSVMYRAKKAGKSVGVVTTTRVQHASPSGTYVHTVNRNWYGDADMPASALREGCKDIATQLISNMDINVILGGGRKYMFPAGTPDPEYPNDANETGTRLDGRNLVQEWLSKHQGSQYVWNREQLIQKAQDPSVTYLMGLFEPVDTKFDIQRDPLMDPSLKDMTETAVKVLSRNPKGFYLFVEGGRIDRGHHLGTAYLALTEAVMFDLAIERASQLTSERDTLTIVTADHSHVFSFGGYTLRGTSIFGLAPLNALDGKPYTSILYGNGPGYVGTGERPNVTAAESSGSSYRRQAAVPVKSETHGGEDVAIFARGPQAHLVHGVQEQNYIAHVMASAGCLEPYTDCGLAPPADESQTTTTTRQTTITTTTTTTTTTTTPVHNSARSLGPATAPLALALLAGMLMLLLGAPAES

On to `N/C(=N\N=C\c1ccc2c(c1)OCO2)SC1CC(=O)N(c2ccc(C(=O)O)cc2)C1=O` (stereo not given), for which the results for the IC50 in experiment [1], in [2] and in [3] were 7.65 µM (active), 7.33 µM (active) and 8.58 µM (active), respectively.

For orientation: EC50 means the concentration that produces a half-maximal response. On to `O=C1NC(=S)NC(=O)C1=Cc1ccc2c(c1)CCN2CCCCl`, for which the IC50 in experiment [4] is 9.27 µM (active); in experiment [6] it was 2.91 µM (active); in experiment [7], 28.8 µM (active); in experiment [10], 4.14 µM (active); in experiment [11], 6.63 µM (active); in experiment [12], > 54 µM (active). The values for the concentration for a half-maximal effect (EC50) in experiment [5], in [8] and in experiment [9] were 96.3 µM (active), 55.5 µM (active) and 76.6 µM (active), respectively.

With `N#Cc1ccc(S(=O)(=O)n2c(N)nc3ccccc32)cc1`, the IC50 in [13], in experiment [14], in [15] and in experiment [16] was > 20 µM (inactive) in each case.

For `Cc1cc(C)c(CSc2nnc(-c3ccccn3)n2Cc2cccs2)c(C)c1`, the half-maximal effective concentration (EC50) in experiment [17] is 9.5 µM (active); in [18], > 32 µM (inactive); in [19] it was > 32 µM (inactive); in experiment [20] it was > 20 µM (inactive).
